21 molecules from patent US12612388B2, “Receptor-interacting protein 1 inhibitors including piperazine heterocyclic amide ureas” (SIRONAX LTD., priority 2020, dated 2026) can be followed below.

The structures appear in SMILES notation.

This experiment deals with HT-29 cells. Kind of experiment: Cellular RIP1 inhibitory activity: necroptosis of HT-29 cells induced by TNF-α/SMAC mimetic/zVAD-FMK, CellTiter-Glo viability. The class given is cell-based. Particulars: Homo sapiens; HT-29 cells; TNF-α 10 ng/ml, SMAC mimetic 6 μM, zVAD-FMK 10 μM; 20 hours; geometric mean, 10 points, duplicates; read-out: EC50 (Cell activity; Necrosis or Necroptosis Inhibitory Activity). As to the method:
In Table 2, activity is provided as follows: +++=0.1 nM≤EC50<100 nM; ++=100 nM≤EC50K<1000 nM; +=1000 nM≤EC50K<10000 nM.
Compounds 1-67 (denoted as Compound Nos. 1 through 67 in Table 1) of the disclosure were tested for binding and cellular RIP1 inhibitory activity following the experimental procedures described below.
Cell line: HT-29 (ATCC® HTB-38™)
Culture medium: McCOY's 5A, Gibco, Cat No. 16600-082
DMSO: Sigma, Cat No. 67-68-5, 1 L
Assay plate: Corning #3903
Compound dilution plate: Corning #3357
Inducers: TNFα, GenScript, Cat No. Z01001-50,
SmacM, Cat. No., HY-15989, MedChemExpress (MCE)
Z_VAD FMK, TargetMol, T6013
Cell Titer-Glo® Luminescent Cell Viability Assay Kit: Promega, Cat No. G7573
1. HT-29 cells were checked every day to make sure that they were healthy and growing as expected. They were subjected to sub-culturing when they were approximately 80% confluent.
2. The culture medium, McCOY's 5A medium (Gibco, Cat No. 16600-082) with 10% fetal bovine serum or FBS (Gibco, Cat No. 10099-141C), was pre-warmed in a 37° C. water bath for at least 30 min.
3. When the cells had reached a desired level of confluency of 80% in a T75 flask, the medium was aspirated, and the cells were washed with warm phosphate buffered saline or PBS two times.
4. 2-3 ml fresh warm trypsin (Gibco, Cat No. 25200-056) solution was added to the washed cells. The flask with the cells was transferred to a 37° C. incubator.
5. After 5 minutes, the side of the flask was tapped, and the flask was examined under a microscope for detachment of the cells to the flask. If necessary, the cells were kept in the incubator for an additional 5-10 minutes, with occasional tapping, until lifting was complete.
6. The trypsin reaction was neutralized by transferring 6-9 ml cell culture medium to sterile 15 ml conical tubes, and by centrifuging the cell culture at 300×g for 7 minutes to pellet the cells (supernatant decanted).
7. The cells were resuspended in fresh cell culture medium and the cell counting was performed using a hemocytometer.
8. 100 μl of the resuspended cell culture medium containing ˜5,000 cells were transferred into each well of the sterile 96-well cell culture plate (Corning 3903) and cultured overnight at 37° C. with 5% CO2.
Compound Titration and Treatment
1. All test compounds were dissolved in DMSO (Dimethyl sulfoxide) to create a 20 mM stock.
2. 3 μl of each compound 20 mM stock was mixed with 27 μl DMSO, and the compound solution was further diluted at a titration ratio of 1:3 (20 μl compound solution+40 μl DMSO) till the 10 points end.
3. All culture medium was removed from assay plates filled with HT-29 cell cultures. The cells were then washed with 1 PBS, and resuspended in fresh, FBS-free McCOY's 5A medium containing a cocktail of TNF-α (10 ng/ml), a SMAC mimetic compound (6 μM) and Z-VAD-fluoromethylketone or zVAD-FMK (10 μM) to stimulate the HT-29 cells to increase RIP1 kinase levels and necroptosis.
4. 0.5 μL of the diluted compound solution was added to the corresponding 96-well assay plates.
5. The assay plates were incubated for 20 hours at 37° C. with 5% CO2.
1. The CellTiter-Glo® Luminescent Cell Viability Assay was employed to detect the ATP levels of viable HT-29 cells.
2. The CellTiter-Glo® buffer and the lyophilized substrate were equilibrated to room temperature prior to use.
3. The CellTiter-Glo® substrate was resuspended with CellTiter-Glo® buffer, then mixed by gently vortexing to obtain a homogeneous solution.
4. 20 μl the enzyme/substrate mixture was transferred by multi-channel pipetting into 96-well assay plates.
5. The assay plates were placed on an orbital shaker and the contents were shaken for 3 minutes to induce cell lysis.
6. The assay plates were incubated at room temperature for 10 minutes to stabilize the luminescent signal.
7. The luminescence signals were read and recorded with EnVision.
8. The geometric mean EC50 values were calculated from 10 points response dose with duplicates. […]
On the technique in general: In ATP-based viability assays light output follows the ATP content of the culture.
On to `CN(C(=O)c1nc(N2CCN(C(=O)N3N=CC[C@H]3c3cc(F)cc(F)c3)CC2)ncc1F)C1CC1` [Compound 9, (S)—N-cyclopropyl-2-(4-(5-(3,5-difluorophenyl)-4,5-dihydro-1H-pyrazole-1-carbonyl)piperazin-1-yl)-5-fluoro-N-methylpyrimidine-4-carboxamide], for which the EC50 (as a rule, the concentration that produces a half-maximal response) lay in the range of 0.1 to 100 nM.
Then `O=C(NCCN1CCOCC1)c1ccnc(N2CCN(C(=O)N3N=CC[C@H]3c3cc(F)cc(F)c3)CC2)n1` [Compound 45, (S)-2-(4-(5-(3,5-difluorophenyl)-4,5-dihydro-1H-pyrazole-1-carbonyl)piperazin-1-yl)-N-(2-morpholinoethyl)pyrimidine-4-carboxamide], with 100 to 1000 nM; and `COC1CN(C(=O)c2nc(N3CCN(C(=O)N4N=CC[C@H]4c4cncc(F)c4)CC3)ncc2Cl)C1` [Compound 64, (S)-(5-chloro-2-(4-(5-(5-fluoropyridin-3-yl)-4,5-dihydro-1H-pyrazole-1-carbonyl)piperazin-1-yl)pyrimidin-4-yl)(3-methoxyazetidin-1-yl)methanone], with 100 to 1000 nM.
Then `N#C[C@H]1CCN(C(=O)c2nc(N3CCN(C(=O)N4N=CC[C@H]4c4cc(F)cc(F)c4)CC3)ncc2F)C1` [Compound 15, (3S)-1-(2-(4-(5-(3,5-difluorophenyl)-4,5-dihydro-1H-pyrazole-1-carbonyl)piperazin-1-yl)-5-fluoropyrimidine-4-carbonyl)pyrrolidine-3-carbonitrile], with 0.1 to 100 nM.
As to `CCOC1CN(C(=O)c2nc(N3CCN(C(=O)N4N=CC[C@H]4c4cc(F)cc(F)c4)CC3)ncc2F)C1` [Compound 23, (S)-(5-(3,5-difluorophenyl)-4,5-dihydro-1H-pyrazol-1-yl)(4-(4-(3-ethoxyazetidine-1-carbonyl)-5-fluoropyrimidin-2-yl)piperazin-1-yl)methanone], the EC50 lay in the range of 0.1 to 100 nM.
Under `N#Cc1cc(F)cc([C@@H]2CC=NN2C(=O)N2CCN(c3nccc(C(N)=O)n3)CC2)c1` [Compound 42, (S)-2-(4-(5-(3-cyano-5-fluorophenyl)-4,5-dihydro-1H-pyrazole-1-carbonyl)piperazin-1-yl)pyrimidine-4-carboxamide] stands 0.1 to 100 nM; under `NC(=O)c1ccnc(N2CCN(C(=O)N3N=CC[C@H]3c3cc(F)cc(F)c3)CC2)n1` [Compound 38, 2-(4-(5-(3,5-difluorophenyl)-4,5-dihydro-1H-pyrazole-1-carbonyl)piperazin-1-yl)pyrimidine-4-carboxamide], 0.1 to 100 nM; under `O=C(NO)c1nc(N2CCN(C(=O)N3N=CC[C@H]3c3cc(F)cc(F)c3)CC2)ncc1F` [Compound 2, (S)-2-(4-(5-(3,5-difluorophenyl)-4,5-dihydro-1H-pyrazole-1-carbonyl)piperazin-1-yl)-5-fluoro-N-hydroxypyrimidine-4-carboxamide], 0.1 to 100 nM.
Then `O=C(c1nc(N2CCN(C(=O)N3N=CC[C@H]3c3cc(F)cc(F)c3)CC2)ncc1F)N1CC(OC(F)(F)F)C1` [Compound 60, (S)-(5-(3,5-difluorophenyl)-4,5-dihydro-1H-pyrazol-1-yl)(4-(5-fluoro-4-(3-(trifluoromethoxy)azetidine-1-carbonyl)pyrimidin-2-yl)piperazin-1-yl)methanone], with 0.1 to 100 nM; and `CNC(=O)c1nc(N2CCN(C(=O)N3N=CC[C@H]3c3cc(F)cc(F)c3)CC2)ncc1F` [Compound 4], with 0.1 to 100 nM; and `COC(=O)c1ccnc(N2CCN(C(=O)N3N=CC[C@H]3c3cc(F)cc(F)c3)CC2)n1` [Compound 49, methyl (S)-2-(4-(5-(3,5-difluorophenyl)-4,5-dihydro-1H-pyrazole-1-carbonyl)piperazin-1-yl)pyrimidine-4-carboxylate], with 0.1 to 100 nM.
In the case of `N#C[C@@H]1CCN(C(=O)c2nc(N3CCN(C(=O)N4N=CC[C@H]4c4cc(F)cc(F)c4)CC3)ncc2F)C1` [Compound 16, (3R)-1-(2-(4-(5-(3,5-difluorophenyl)-4,5-dihydro-1H-pyrazole-1-carbonyl)piperazin-1-yl)-5-fluoropyrimidine-4-carbonyl)pyrrolidine-3-carbonitrile], the EC50 was in the range of 0.1 to 100 nM.
For the molecule `O=C(c1nc(N2CCN(C(=O)N3N=CC[C@H]3c3cc(F)cc(F)c3)CC2)ncc1F)N1CCCCC1` [Compound 17, (5-(3,5-difluorophenyl)-4,5-dihydro-1H-pyrazol-1-yl)(4-(5-fluoro-4-(piperidine-1-carbonyl)pyrimidin-2-yl)piperazin-1-yl)methanone], the EC50 lay in the range of 0.1 to 100 nM.
Then `CC1CN(C(=O)c2nc(N3CCN(C(=O)N4N=CC[C@H]4c4cc(F)cc(F)c4)CC3)ncc2F)C1` [Compound 56, (S)-(5-(3,5-difluorophenyl)-4,5-dihydro-1H-pyrazol-1-yl)(4-(5-fluoro-4-(3-methylazetidine-1-carbonyl)pyrimidin-2-yl)piperazin-1-yl)methanone], with 0.1 to 100 nM; and `CN(C)[C@H]1CCN(C(=O)c2nc(N3CCN(C(=O)N4N=CC[C@H]4c4cc(F)cc(F)c4)CC3)ncc2F)C1` [Compound 31, ((S)-5-(3,5-difluorophenyl)-4,5-dihydro-1H-pyrazol-1-yl)(4-(4-((S)-3-(dimethylamino)pyrrolidine-1-carbonyl)-5-fluoropyrimidin-2-yl)piperazin-1-yl)methanone], with 0.1 to 100 nM; and `O=C(c1nc(N2CCN(C(=O)N3N=CC[C@H]3c3cc(F)cc(F)c3)CC2)ncc1F)N1CC(F)(F)C1` [Compound 12, (S)-(3,3-difluoroazetidin-1-yl)(2-(4-(5-(3,5-difluorophenyl)-4,5-dihydro-1H-pyrazole-1-carbonyl)piperazin-1-yl)-5-fluoropyrimidin-4-yl)methanone], with 0.1 to 100 nM.
For the molecule `NC(=O)c1ccnc(N2CCN(C(=O)N3N=CC[C@H]3c3ccccc3)CC2)n1` [Compound 41, (S)-2-(4-(5-phenyl-4,5-dihydro-1H-pyrazole-1-carbonyl)piperazin-1-yl)pyrimidine-4-carboxamide], the EC50 lay within 0.1 to 100 nM.
Then `CN1CCN(C(=O)c2nc(N3CCN(C(=O)N4N=CC[C@H]4c4cc(F)cc(F)c4)CC3)ncc2F)CC1` [Compound 19, (5-(3,5-difluorophenyl)-4,5-dihydro-1H-pyrazol-1-yl)(4-(5-fluoro-4-(4-methylpiperazine-1-carbonyl)pyrimidin-2-yl)piperazin-1-yl)methanone], with 0.1 to 100 nM; and `CN(CC#N)C(=O)c1nc(N2CCN(C(=O)N3N=CC[C@H]3c3cc(F)cc(F)c3)CC2)ncc1F` [Compound 34, (S)—N-(cyanomethyl)-2-(4-(5-(3,5-difluorophenyl)-4,5-dihydro-1H-pyrazole-1-carbonyl)piperazin-1-yl)-5-fluoro-N-methylpyrimidine-4-carboxamide], with 0.1 to 100 nM.
For `COC1CN(C(=O)c2nc(N3CCN(C(=O)N4N=CCC4c4cncc(Cl)c4)CC3)ncc2F)C1` (stereo not drawn) [Compound 66, (5-(5-chloropyridin-3-yl)-4,5-dihydro-1H-pyrazol-1-yl)(4-(5-fluoro-4-(3-methoxyazetidine-1-carbonyl)pyrimidin-2-yl)piperazin-1-yl)methanone], the EC50 was 0.1 to 100 nM.
In the case of `N#Cc1cncc([C@@H]2CC=NN2C(=O)N2CCN(c3nccc(C(N)=O)n3)CC2)c1` [Compound 43, (S)-2-(4-(5-(5-cyanopyridin-3-yl)-4,5-dihydro-1H-pyrazole-1-carbonyl)piperazin-1-yl)pyrimidine-4-carboxamide], the EC50 lay in the range of 100 to 1000 nM.
